molecular target: T1, ITK (Homo sapiens, UniProt Q08881); assay: ITK enzyme assay (Caliper or LCMS peptide phosphorylation); format: biochemical; conditions: purified ITK (Invitrogen PV3875), 20 μM ATP, Ki by Morrison's quadratic equation
T1 construct: purchased Invitrogen PV3875
T1 sequence (Q08881 1-620): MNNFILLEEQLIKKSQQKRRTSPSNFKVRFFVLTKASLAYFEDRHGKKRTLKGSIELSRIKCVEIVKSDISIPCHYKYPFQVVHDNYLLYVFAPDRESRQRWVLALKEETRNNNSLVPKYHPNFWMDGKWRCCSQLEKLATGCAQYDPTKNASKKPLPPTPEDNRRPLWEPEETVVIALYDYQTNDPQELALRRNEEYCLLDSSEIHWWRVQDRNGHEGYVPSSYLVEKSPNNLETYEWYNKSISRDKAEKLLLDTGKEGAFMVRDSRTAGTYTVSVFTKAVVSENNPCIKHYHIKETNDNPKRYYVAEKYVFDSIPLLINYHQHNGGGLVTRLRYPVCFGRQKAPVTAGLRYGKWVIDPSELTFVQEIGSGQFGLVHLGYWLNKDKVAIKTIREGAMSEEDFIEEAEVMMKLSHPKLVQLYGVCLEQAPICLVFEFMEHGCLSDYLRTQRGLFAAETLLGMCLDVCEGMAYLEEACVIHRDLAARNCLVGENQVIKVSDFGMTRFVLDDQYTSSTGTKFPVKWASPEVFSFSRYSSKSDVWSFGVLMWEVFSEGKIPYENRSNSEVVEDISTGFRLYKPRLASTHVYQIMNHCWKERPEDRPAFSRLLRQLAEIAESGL
Protocol: The ability of purified ITK (Invitrogen PV3875) to catalyze peptide phosphorylation is monitored using a Caliper LabChip 3000 microfluidic unit (Caliper assay) or by liquid chromatography-mass spectrometry (LCMS) using a Waters Acquity system (LCMS assay). […] Reactions are quenched by the addition of 2,2′,2″,2′″-(ethane-1,2-diyldinitrilo)tetraacetic acid (50 mM final). Non-phosphorylated substrate and phosphorylated product peptides are separated and quantified using a Caliper LabChip 3000 instrument. […] Reactions are quenched by the addition of trichloroacetic acid (5% v/v final). Non-phosphorylated substrate and phosphorylated product peptides are separated by ultra performance LC and detected by a coupled triple quadrupole MS device applying multiple reaction monitoring (MRM) for quantification. The area of the MRM-extracted mass signal is used to assess the inhibition by test compounds. Equilibrium dissociation constant (Ki) values for ITK inhibitors are calculated from plots of activity vs. inhibitor concentration using Morrison's quadratic equation that accounts for the potential of tight binding, and by also applying the conversion factor that accounts for competitive inhibition and the concentration of ATP used in the assay relative to its apparent Michaelis constant (Km,app).

Row | SMILES | Ki
1 | CN(C)CCC(c1ccccc1)n1cc(NC(=O)c2n[nH]c3c2C2CC2CC3)cn1 (single isomer, unassigned) [Example 26c, N-(1-(3-(dimethylamino)-1-phenylpropyl)-1H-pyrazol-4-yl)-3,4,5,5a,6,6a-hexahydrocyclopropa[e]indazole-1-carboxamide] | 0.022 µM
2 | CN(C)CCC(c1ccccc1)n1cc(NC(=O)c2n[nH]c3c2C2CC2CC3)cn1 (single isomer, unassigned) [Example 26d, N-(1-(3-(dimethylamino)-1-phenylpropyl)-1H-pyrazol-4-yl)-3,4,5,5a,6,6a-hexahydrocyclopropa[e]indazole-1-carboxamide] | 0.78 µM
3 | Cn1cc(C(c2ccccc2)n2cc(NC(=O)c3n[nH]c4c3CC3CC3C4)cn2)cn1 (single isomer, unassigned) [Example 27a, N-(1-((1-methyl-1H-pyrazol-4-yl)(phenyl)methyl)-1H-pyrazol-4-yl)-1,4,4a,5,5a,6-hexahydro cyclopropa[f]indazole-3-carboxamide] | 0.03 µM
4 | Cn1cc(C(c2ccccc2)n2cc(NC(=O)c3n[nH]c4c3CC3CC3C4)cn2)cn1 (single isomer, unassigned) [Example 27b, N-(1-((1-methyl-1H-pyrazol-4-yl)(phenyl)methyl)-1H-pyrazol-4-yl)-1,4,4a,5,5a,6-hexahydro cyclopropa[f]indazole-3-carboxamide] | 0.011 µM
5 | Cn1cc(C(c2ccccc2)n2cc(NC(=O)c3n[nH]c4c3CC3CC3C4)cn2)cn1 (single isomer, unassigned) [Example 27c, N-(1-((1-methyl-1H-pyrazol-4-yl)(phenyl)methyl)-1H-pyrazol-4-yl)-1,4,4a,5,5a,6-hexahydro cyclopropa[f]indazole-3-carboxamide] | 0.045 µM
6 | Cn1cc(C(c2ccccc2)n2cc(NC(=O)c3n[nH]c4c3CC3CC3C4)cn2)cn1 (single isomer, unassigned) [Example 27d, N-(1-((1-methyl-1H-pyrazol-4-yl)(phenyl)methyl)-1H-pyrazol-4-yl)-1,4,4a,5,5a,6-hexahydro cyclopropa[f]indazole-3-carboxamide] | 0.096 µM
7 | CN(C)CCC(c1ccccc1)n1cc(NC(=O)c2n[nH]c3c2CC2CC2C3)cn1 (single isomer, unassigned) [Example 28a, N-(1-(3-(dimethylamino)-1-phenylpropyl)-1H-pyrazol-4-yl)-1,4,4a,5,5a,6-hexahydrocyclopropa[f]indazole-3-carboxamide] | 0.016 µM
8 | CN(C)CCC(c1ccccc1)n1cc(NC(=O)c2n[nH]c3c2CC2CC2C3)cn1 (single isomer, unassigned) [Example 28b, N-(1-(3-(dimethylamino)-1-phenylpropyl)-1H-pyrazol-4-yl)-1,4,4a,5,5a,6-hexahydrocyclopropa[f]indazole-3-carboxamide] | 0.006 µM
9 | CN(C)CCC(c1ccccc1)n1cc(NC(=O)c2n[nH]c3c2CC2CC2C3)cn1 (single isomer, unassigned) [Example 28c, N-(1-(3-(dimethylamino)-1-phenylpropyl)-1H-pyrazol-4-yl)-1,4,4a,5,5a,6-hexahydrocyclopropa[f]indazole-3-carboxamide] | 0.155 µM
10 | CN(C)CCC(c1ccccc1)n1cc(NC(=O)c2n[nH]c3c2CC2CC2C3)cn1 (single isomer, unassigned) [Example 28d, N-(1-(3-(dimethylamino)-1-phenylpropyl)-1H-pyrazol-4-yl)-1,4,4a,5,5a,6-hexahydrocyclopropa[f]indazole-3-carboxamide] | 0.098 µM
11 | CN(C)CCC(c1cccc(C(F)(F)F)c1)n1cc(NC(=O)c2n[nH]c3c2CCC(C)(C)C3)cn1 (single isomer, unassigned) [Example 30a, N-(1-(3-(dimethylamino)-1-(3-(trifluoromethyl)phenyl)propyl)-1H-pyrazol-4-yl)-6,6-dimethyl-4,5,6,7-tetrahydro-1H-indazole-3-carboxamide] | 0.002 µM
12 | CN(C)CCC(c1cccc(C(F)(F)F)c1)n1cc(NC(=O)c2n[nH]c3c2CCC(C)(C)C3)cn1 (single isomer, unassigned) [Example 30b, N-(1-(3-(dimethylamino)-1-(3-(trifluoromethyl)phenyl)propyl)-1H-pyrazol-4-yl)-6,6-dimethyl-4,5,6,7-tetrahydro-1H-indazole-3-carboxamide] | 0.004 µM
13 | CC1(C)CCc2c(C(=O)Nc3cnn(C(c4ccccc4)C4CNC4)c3)n[nH]c2C1 (single isomer, unassigned) [Example 34a, N-(1-(azetidin-3-yl(phenyl)methyl)-1H-pyrazol-4-yl)-6,6-dimethyl-4,5,6,7-tetrahydro-1H-indazole-3-carboxamide] | 0.003 µM
14 | CC1(C)CCc2c(C(=O)Nc3cnn(C(c4ccccc4)C4CNC4)c3)n[nH]c2C1 (single isomer, unassigned) [Example 34b, N-(1-(azetidin-3-yl(phenyl)methyl)-1H-pyrazol-4-yl)-6,6-dimethyl-4,5,6,7-tetrahydro-1H-indazole-3-carboxamide] | 0.0007 µM

The next lines start with the values.

Row | Ki | SMILES
15 | 0.013 µM | Cn1cc(C(c2ccccc2)n2cc(NC(=O)c3n[nH]c4c3C3CC3CC4)cn2)cn1 (single isomer, unassigned) [Example 35a, N-(1-((1-methyl-1H-pyrazol-4-yl)(phenyl)methyl)-1H-pyrazol-4-yl)-3,4,5,5a,6,6a-hexahydro cyclopropa[e]indazole-1-carboxamide]
16 | 0.002 µM | Cn1cc(C(c2ccccc2)n2cc(NC(=O)c3n[nH]c4c3C3CC3CC4)cn2)cn1 (single isomer, unassigned) [Example 35b, N-(1-((1-methyl-1H-pyrazol-4-yl)(phenyl)methyl)-1H-pyrazol-4-yl)-3,4,5,5a,6,6a-hexahydro cyclopropa[e]indazole-1-carboxamide]
17 | 0.22 µM | Cn1cc(C(c2ccccc2)n2cc(NC(=O)c3n[nH]c4c3C3CC3CC4)cn2)cn1 (single isomer, unassigned) [Example 35c, N-(1-((1-methyl-1H-pyrazol-4-yl)(phenyl)methyl)-1H-pyrazol-4-yl)-3,4,5,5a,6,6a-hexahydro cyclopropa[e]indazole-1-carboxamide]
18 | 0.19 µM | Cn1cc(C(c2ccccc2)n2cc(NC(=O)c3n[nH]c4c3C3CC3CC4)cn2)cn1 (single isomer, unassigned) [Example 35d, N-(1-((1-methyl-1H-pyrazol-4-yl)(phenyl)methyl)-1H-pyrazol-4-yl)-3,4,5,5a,6,6a-hexahydro cyclopropa[e]indazole-1-carboxamide]
19 | 0.014 µM | CC(=O)N1CC(C(c2ccccc2)n2cc(NC(=O)c3n[nH]c4c3CCC(C)(C)C4)cn2)C1 (single isomer, unassigned) [Example 37a, N-(1-((1-acetylazetidin-3-yl)(phenyl)methyl)-1H-pyrazol-4-yl)-6,6-dimethyl-4,5,6,7-tetrahydro-1H-indazole-3-carboxamide]
20 | 0.002 µM | CC(=O)N1CC(C(c2ccccc2)n2cc(NC(=O)c3n[nH]c4c3CCC(C)(C)C4)cn2)C1 (single isomer, unassigned) [Example 37b, N-(1-((1-acetylazetidin-3-yl)(phenyl)methyl)-1H-pyrazol-4-yl)-6,6-dimethyl-4,5,6,7-tetrahydro-1H-indazole-3-carboxamide]
21 | 0.004 µM | CN1CC(C(c2ccccc2)n2cc(NC(=O)c3n[nH]c4c3CCC(C)(C)C4)cn2)C1 (single isomer, unassigned) [Example 38a, 6,6-dimethyl-N-(1-((1-methylazetidin-3-yl)(phenyl)methyl)-1H-pyrazol-4-yl)-4,5,6,7-tetrahydro-1H-indazole-3-carboxamide]
22 | 0.0005 µM | CN1CC(C(c2ccccc2)n2cc(NC(=O)c3n[nH]c4c3CCC(C)(C)C4)cn2)C1 (single isomer, unassigned) [Example 38b, 6,6-dimethyl-N-(1-((1-methylazetidin-3-yl)(phenyl)methyl)-1H-pyrazol-4-yl)-4,5,6,7-tetrahydro-1H-indazole-3-carboxamide]
23 | 0.0007 µM | CNCCC(c1ccccc1)n1cc(NC(=O)c2n[nH]c3c2CCC(C)(C)C3)cn1 (single isomer, unassigned) [Example 39a, 6,6-dimethyl-N-(1-(3-(methylamino)-1-phenylpropyl)-1H-pyrazol-4-yl)-4,5,6,7-tetrahydro-1H-indazole-3-carboxamide]
24 | 0.006 µM | CNCCC(c1ccccc1)n1cc(NC(=O)c2n[nH]c3c2CCC(C)(C)C3)cn1 (single isomer, unassigned) [Example 39b, 6,6-dimethyl-N-(1-(3-(methylamino)-1-phenylpropyl)-1H-pyrazol-4-yl)-4,5,6,7-tetrahydro-1H-indazole-3-carboxamide]
